Assay results as given in paper PMC6720883, “In Vitro Inhibitory Effects of APINACA on Human Major Cytochrome P450, UDP-Glucuronosyltransferase Enzymes, and Drug Transporters” (Molecules, 2019).
Where two headings read alike, the source gives them in different places.

Columns and labels:
[1] = molecular target: T1, CYP3A4 (Homo sapiens, UniProt P08684); conditions: cited from earlier work
[2] = molecular target: T2, OATP1B1 (Homo sapiens, UniProt Q9Y6L6); assay: Uptake of [3-H]estrone-3-sulfate in HEK293-OATP1B1 cells; assay type: in vitro ADME; conditions: HEK293-OATP1B1 cells; 0.1 μM [3-H]estrone-3-sulfate; 5 min uptake
T2 construct: host or cells: HEK293 (transient overexpression)
T2 sequence (Q9Y6L6 1-691): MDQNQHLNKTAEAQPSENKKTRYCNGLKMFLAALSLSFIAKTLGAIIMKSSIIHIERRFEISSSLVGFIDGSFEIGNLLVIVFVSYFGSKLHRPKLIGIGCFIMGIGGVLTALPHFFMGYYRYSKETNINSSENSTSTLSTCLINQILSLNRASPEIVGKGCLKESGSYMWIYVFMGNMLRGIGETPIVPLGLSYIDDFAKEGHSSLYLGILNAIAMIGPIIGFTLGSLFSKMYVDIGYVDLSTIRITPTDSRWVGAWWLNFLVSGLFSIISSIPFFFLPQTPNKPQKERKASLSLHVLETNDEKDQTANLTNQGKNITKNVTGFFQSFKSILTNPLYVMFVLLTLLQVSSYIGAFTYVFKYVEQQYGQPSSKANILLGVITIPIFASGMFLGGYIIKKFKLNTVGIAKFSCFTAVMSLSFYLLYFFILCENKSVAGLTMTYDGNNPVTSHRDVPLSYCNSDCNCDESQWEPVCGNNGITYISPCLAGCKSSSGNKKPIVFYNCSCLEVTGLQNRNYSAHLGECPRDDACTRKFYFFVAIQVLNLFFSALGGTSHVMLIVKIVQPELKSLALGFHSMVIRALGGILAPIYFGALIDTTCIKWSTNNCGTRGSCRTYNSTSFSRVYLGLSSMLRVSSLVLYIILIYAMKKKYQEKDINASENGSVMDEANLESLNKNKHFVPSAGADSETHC
Experimental: To examine the effects of APINACA and typical inhibitors on transporter activity, the uptake of a probe substrate into HEK293 cells overexpressing the respective solute carrier transporters was measured in the presence of APINACA (final concentrations of 0–250 μM) or typical inhibitors for 5 min. The concentrations and probe substrates were selected as follows: 0.1 μM [3-H]MPP^+ (for OCT1 and OCT2), 0.1 μM [3-H]PAH (for OAT1), 0.1 μM [3-H]ES (for OAT3 and OATP1B1), and 0.1 μM [3-H]EG (for OATP1B3).
(§1) 12.5 (Systat Software, Inc.; San Jose, CA, USA). […] 1.1 (Systat Software, Inc.).

[3] = molecular target: OATP1B3 (Homo sapiens, UniProt Q9NPD5)
[4] = molecular target: T3, UGT1A1 (Homo sapiens, UniProt P22309); assay: biochemical; assay type: in vitro ADME
T3 construct: […]; tissue Corning Life Sciences
T3 sequence (P22309 26-533): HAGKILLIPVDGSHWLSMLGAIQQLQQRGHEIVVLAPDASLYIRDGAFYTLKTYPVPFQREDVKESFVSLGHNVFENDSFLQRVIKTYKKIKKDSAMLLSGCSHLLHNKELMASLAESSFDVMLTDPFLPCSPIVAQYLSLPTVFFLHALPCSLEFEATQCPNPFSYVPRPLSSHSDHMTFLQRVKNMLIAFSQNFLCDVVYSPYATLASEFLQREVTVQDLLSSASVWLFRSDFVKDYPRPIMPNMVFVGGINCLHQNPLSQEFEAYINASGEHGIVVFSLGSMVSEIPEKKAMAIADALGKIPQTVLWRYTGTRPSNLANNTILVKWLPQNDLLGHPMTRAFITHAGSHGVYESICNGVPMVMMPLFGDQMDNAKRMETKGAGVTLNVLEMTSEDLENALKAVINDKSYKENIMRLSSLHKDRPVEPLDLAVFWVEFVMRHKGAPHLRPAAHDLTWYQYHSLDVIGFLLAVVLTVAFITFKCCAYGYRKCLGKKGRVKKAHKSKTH
From the text: as §1

[5] = molecular target: T4, UGT1A9 (Homo sapiens, UniProt O60656); set-up: […]; tissue Corning Life Sciences; method as in PMID 23230132; conditions: human liver microsomes; read-out: Ki for inhibition of UGT1A9-mediated ethanol glucuronidation; cited from earlier work
T4 sequence (O60656 26-530): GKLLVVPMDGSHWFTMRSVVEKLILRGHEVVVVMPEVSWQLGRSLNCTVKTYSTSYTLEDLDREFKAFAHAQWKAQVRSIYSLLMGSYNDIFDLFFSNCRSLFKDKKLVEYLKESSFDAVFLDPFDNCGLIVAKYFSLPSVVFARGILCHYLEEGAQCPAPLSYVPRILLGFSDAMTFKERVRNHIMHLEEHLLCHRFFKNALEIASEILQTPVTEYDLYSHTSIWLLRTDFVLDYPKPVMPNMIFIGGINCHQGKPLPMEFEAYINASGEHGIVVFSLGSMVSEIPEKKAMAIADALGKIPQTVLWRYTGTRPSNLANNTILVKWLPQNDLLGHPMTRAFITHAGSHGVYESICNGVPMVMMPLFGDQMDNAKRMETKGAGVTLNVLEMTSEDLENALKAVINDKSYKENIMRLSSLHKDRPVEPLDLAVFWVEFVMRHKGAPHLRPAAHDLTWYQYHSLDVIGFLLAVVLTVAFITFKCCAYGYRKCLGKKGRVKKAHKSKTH

[6] = molecular target: T1, CYP3A4; set-up: method as in PMID 22490230; conditions: human liver microsomes; cited from earlier work
[7] = molecular target: T4, UGT1A9; assay: Inhibition of UGT1A9-catalyzed mycophenolic acid glucuronidation in human liver microsomes; assay type: in vitro ADME; set-up: […]; tissue Corning Life Sciences; conditions: pooled human liver microsomes; 0.2 µM mycophenolic acid; without preincubation (●); read-out: IC50 UGT1A9 mycophenolic acid glucuronidation, without preincubation
From the text: as §1

T1 sequence (P08684 2-503): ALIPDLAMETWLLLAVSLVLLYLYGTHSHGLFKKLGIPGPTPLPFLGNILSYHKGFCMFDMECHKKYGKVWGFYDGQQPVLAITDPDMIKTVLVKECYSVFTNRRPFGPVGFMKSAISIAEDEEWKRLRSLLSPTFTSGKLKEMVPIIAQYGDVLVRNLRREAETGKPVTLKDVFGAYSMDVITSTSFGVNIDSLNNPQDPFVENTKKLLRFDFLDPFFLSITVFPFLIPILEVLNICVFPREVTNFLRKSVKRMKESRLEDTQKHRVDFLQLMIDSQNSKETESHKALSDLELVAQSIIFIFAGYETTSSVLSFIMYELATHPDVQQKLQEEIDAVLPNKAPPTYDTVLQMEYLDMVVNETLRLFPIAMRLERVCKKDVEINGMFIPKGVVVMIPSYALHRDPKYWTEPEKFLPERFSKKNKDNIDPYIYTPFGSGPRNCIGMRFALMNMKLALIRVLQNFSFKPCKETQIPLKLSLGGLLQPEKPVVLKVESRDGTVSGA
OATP1B3, sequence (Q9NPD5 whole entry): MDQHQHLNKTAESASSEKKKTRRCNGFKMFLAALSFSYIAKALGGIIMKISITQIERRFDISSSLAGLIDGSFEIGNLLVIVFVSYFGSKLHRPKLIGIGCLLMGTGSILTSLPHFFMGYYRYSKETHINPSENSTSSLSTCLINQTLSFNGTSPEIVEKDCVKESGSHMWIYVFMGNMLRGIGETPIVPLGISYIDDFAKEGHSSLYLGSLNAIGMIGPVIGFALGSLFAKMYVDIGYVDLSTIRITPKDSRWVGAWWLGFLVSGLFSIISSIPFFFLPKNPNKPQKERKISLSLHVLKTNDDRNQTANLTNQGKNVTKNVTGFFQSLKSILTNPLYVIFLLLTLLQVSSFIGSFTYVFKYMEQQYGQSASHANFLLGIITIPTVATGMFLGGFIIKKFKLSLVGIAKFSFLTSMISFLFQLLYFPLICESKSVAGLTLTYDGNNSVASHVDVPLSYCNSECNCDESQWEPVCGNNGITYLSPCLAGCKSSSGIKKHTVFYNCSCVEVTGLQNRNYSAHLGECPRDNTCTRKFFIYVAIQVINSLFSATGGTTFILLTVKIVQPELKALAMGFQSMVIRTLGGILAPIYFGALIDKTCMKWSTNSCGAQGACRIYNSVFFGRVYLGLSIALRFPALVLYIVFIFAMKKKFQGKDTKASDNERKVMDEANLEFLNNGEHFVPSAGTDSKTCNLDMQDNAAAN

For `O=C(c1cccc2ccccc12)c1cn(CCCCCF)c2ccccc12` [AM-2201], the Ki ([1]; competitive inhibition, read-out: Ki for competitive inhibition of CYP3A4-catalyzed midazolam 1′-hydroxylation) is given as 4 µM.

For `CCc1ccc(C(=O)c2cn(CCCCCF)c3ccccc23)c2ccccc12` [EAM-2201], the “kinact for CYP3A4-catalyzed midazolam 1′-hydroxylation” value ([1]; human liver microsomes) is listed as 0.0250 min⁻¹.

In the case of `Cc1ccc(C(=O)c2cn(CCCCCF)c3ccccc23)c2ccccc12` [MAM-2201], the Ki ([1]; noncompetitive inhibition, read-out: Ki for noncompetitive inhibition of CYP3A4-catalyzed midazolam 1′-hydroxylation) is listed as 5.4 µM.

`CO[C@H]1/C=C/O[C@@]2(C)Oc3c(C)c(O)c4c(O)c(c(/C=N/N5CCN(C)CC5)c(O)c4c3C2=O)NC(=O)/C(C)=C\C=C\[C@H](C)[C@H](O)[C@@H](C)[C@@H](O)[C@@H](C)[C@H](OC(C)=O)[C@@H]1C` [Rifampin, reference compound] gave an IC50 [2] of 22.8 µM and an IC50 [3] of 0.99 µM.

`COC(=O)N[C@H](C(=O)N[C@@H](Cc1ccccc1)[C@@H](O)CN(Cc1ccc(-c2ccccn2)cc1)NC(=O)[C@@H](NC(=O)OC)C(C)(C)C)C(C)(C)C` [atazanavir, reference compound] showed an IC50 [4] of 0.7 µM.

In the case of `C=C(C)[C@@H]1CCC(C)=C[C@H]1c1c(O)cc(CCCCC)cc1O` [cannabidiol], the Ki [5] is listed as 9.9 µM.

For `CC[C@H]1OC(=O)[C@H](C)[C@@H](O[C@H]2C[C@@](C)(OC)[C@@H](O)[C@H](C)O2)[C@H](C)[C@@H](O[C@@H]2O[C@H](C)C[C@H](N(C)C)[C@H]2O)[C@](C)(OC)C[C@@H](C)C(=O)[C@H](C)[C@@H](O)[C@]1(C)O` [clarithromycin], the “inactivation efficiency (kinact/Ki) for time-dependent inhibition of CYP3A4” value [6] is listed as 46.7 M⁻¹ s⁻¹.

With `C=CCc1ccc(O)c(-c2cc(CC=C)ccc2O)c1` [magnolol, reference compound] the IC50 [7] was 9.7 µM.
